Measurements: the NIST ThermoML archive (doi:10.1021/je034203p)
± gives the expanded uncertainty stated by the source.

Assay: xn = mol fraction of the nth substance listed
Details: 298.15 K, 101.3 kPa, Liquid; for viscosity: Capillary tube (Ostwald / Ubbelohde) method

ClC(Cl)(Cl)Cl [tetrachloromethane] + ClC=C(Cl)Cl
viscosity (x2 = 0): 0.9096 ± 0.0095 mPa·s | mass density (x2 = 0): 1586.1 ± 1.6 kg/m3

ClC(Cl)=C(Cl)Cl [tetrachloroethene] + c1ccccc1
viscosity (x1 = 0.0883): 0.6141 ± 0.0078 mPa·s | viscosity (x1 = 0.1788): 0.6279 ± 0.0079 mPa·s | viscosity (x1 = 0.272): 0.6438 ± 0.008 mPa·s | viscosity (x1 = 0.3674): 0.6618 ± 0.0081 mPa·s | viscosity (x1 = 0.4655): 0.6834 ± 0.0082 mPa·s | viscosity (x1 = 0.5671): 0.7088 ± 0.0083 mPa·s | viscosity (x1 = 0.6706): 0.7367 ± 0.0085 mPa·s | viscosity (x1 = 0.777): 0.7693 ± 0.0087 mPa·s | viscosity (x1 = 0.8873): 0.8051 ± 0.0089 mPa·s | viscosity (x1 = 1): 0.8474 ± 0.0091 mPa·s | mass density (x1 = 0.0883): 939.8 ± 0.6 kg/m3 | mass density (x1 = 0.1788): 1011.5 ± 0.5 kg/m3 | mass density (x1 = 0.272): 1084.6 ± 0.7 kg/m3 | mass density (x1 = 0.3674): 1156.7 ± 0.8 kg/m3 | mass density (x1 = 0.4655): 1228.8 ± 0.9 kg/m3 | mass density (x1 = 0.5671): 1302.3 ± 1.1 kg/m3 | mass density (x1 = 0.6706): 1377.4 ± 1.2 kg/m3 | mass density (x1 = 0.777): 1453.2 ± 1.3 kg/m3 | mass density (x1 = 0.8873): 1531.7 ± 1.5 kg/m3 | mass density (x1 = 1): 1610.2 ± 1.6 kg/m3

ClC=C(Cl)Cl [trichloroethene] + CCO
viscosity (x1 = 0.0673): 1.047 ± 0.01 mPa·s | viscosity (x1 = 0.1397): 0.9855 ± 0.01 mPa·s | viscosity (x1 = 0.2173): 0.9272 ± 0.0096 mPa·s | viscosity (x1 = 0.3018): 0.8651 ± 0.0092 mPa·s | viscosity (x1 = 0.3932): 0.8082 ± 0.0089 mPa·s | viscosity (x1 = 0.493): 0.7528 ± 0.0086 mPa·s | viscosity (x1 = 0.602): 0.6984 ± 0.0083 mPa·s | viscosity (x1 = 0.7215): 0.647 ± 0.008 mPa·s | viscosity (x1 = 0.8563): 0.5974 ± 0.0078 mPa·s | viscosity (x1 = 1): 0.551 ± 0.0075 mPa·s | mass density (x1 = 0.0673): 852.4 ± 0.6 kg/m3 | mass density (x1 = 0.1397): 918.2 ± 0.6 kg/m3 | mass density (x1 = 0.2173): 983.9 ± 0.6 kg/m3 | mass density (x1 = 0.3018): 1049.4 ± 0.6 kg/m3 | mass density (x1 = 0.3932): 1115.8 ± 0.7 kg/m3 | mass density (x1 = 0.493): 1182.4 ± 0.9 kg/m3 | mass density (x1 = 0.602): 1249.4 ± 0.9 kg/m3 | mass density (x1 = 0.7215): 1317.1 ± 1.1 kg/m3 | mass density (x1 = 0.8563): 1385.6 ± 1.2 kg/m3 | mass density (x1 = 1): 1455.7 ± 1.3 kg/m3

ClC=C(Cl)Cl [trichloroethene] + Cc1ccccc1
viscosity (x1 = 0.1166): 0.5592 ± 0.0076 mPa·s | viscosity (x1 = 0.2291): 0.5535 ± 0.0075 mPa·s | viscosity (x1 = 0.3367): 0.5498 ± 0.0075 mPa·s | viscosity (x1 = 0.4417): 0.5452 ± 0.0075 mPa·s | viscosity (x1 = 0.5426): 0.5432 ± 0.0075 mPa·s | viscosity (x1 = 0.64): 0.5445 ± 0.0075 mPa·s | viscosity (x1 = 0.7348): 0.5454 ± 0.0075 mPa·s | viscosity (x1 = 0.8257): 0.5477 ± 0.0075 mPa·s | viscosity (x1 = 0.9147): 0.5495 ± 0.0075 mPa·s | viscosity (x1 = 1): 0.551 ± 0.0075 mPa·s | mass density (x1 = 0.1166): 917.5 ± 0.6 kg/m3 | mass density (x1 = 0.2291): 975.6 ± 0.6 kg/m3 | mass density (x1 = 0.3367): 1033 ± 0.6 kg/m3 | mass density (x1 = 0.4417): 1090.9 ± 0.7 kg/m3 | mass density (x1 = 0.5426): 1149 ± 0.8 kg/m3 | mass density (x1 = 0.64): 1210.5 ± 0.9 kg/m3 | mass density (x1 = 0.7348): 1270.8 ± 1 kg/m3 | mass density (x1 = 0.8257): 1331.5 ± 1.1 kg/m3 | mass density (x1 = 0.9147): 1393.2 ± 1.2 kg/m3 | mass density (x1 = 1): 1455.7 ± 1.3 kg/m3

ClC=C(Cl)Cl [trichloroethene] + c1ccccc1
viscosity (x1 = 0.0997): 0.5937 ± 0.0077 mPa·s | viscosity (x1 = 0.1995): 0.584 ± 0.0077 mPa·s | viscosity (x1 = 0.2988): 0.5761 ± 0.0077 mPa·s | viscosity (x1 = 0.3987): 0.5682 ± 0.0076 mPa·s | viscosity (x1 = 0.4986): 0.5621 ± 0.0076 mPa·s | viscosity (x1 = 0.5991): 0.5573 ± 0.0076 mPa·s | viscosity (x1 = 0.6991): 0.5573 ± 0.0076 mPa·s | viscosity (x1 = 0.7989): 0.5517 ± 0.0075 mPa·s | viscosity (x1 = 0.8998): 0.5499 ± 0.0075 mPa·s | viscosity (x1 = 1): 0.551 ± 0.0075 mPa·s | mass density (x1 = 0.0997): 923.8 ± 0.6 kg/m3 | mass density (x1 = 0.1995): 981.7 ± 0.6 kg/m3 | mass density (x1 = 0.2988): 1037.2 ± 0.6 kg/m3 | mass density (x1 = 0.3987): 1094.6 ± 0.7 kg/m3 | mass density (x1 = 0.4986): 1152.3 ± 0.8 kg/m3 | mass density (x1 = 0.5991): 1211 ± 0.9 kg/m3 | mass density (x1 = 0.6991): 1269.8 ± 1 kg/m3 | mass density (x1 = 0.7989): 1330.3 ± 1.1 kg/m3 | mass density (x1 = 0.8998): 1391.9 ± 1.2 kg/m3 | mass density (x1 = 1): 1455.7 ± 1.3 kg/m3

ClC=C(Cl)Cl [trichloroethene] + CCC(C)O
viscosity (x1 = 0.102): 2.502 ± 0.022 mPa·s | viscosity (x1 = 0.2035): 2.019 ± 0.018 mPa·s | viscosity (x1 = 0.304): 1.641 ± 0.015 mPa·s | viscosity (x1 = 0.4049): 1.344 ± 0.013 mPa·s | viscosity (x1 = 0.505): 1.128 ± 0.011 mPa·s | viscosity (x1 = 0.6051): 0.9463 ± 0.0097 mPa·s | viscosity (x1 = 0.7042): 0.8155 ± 0.0089 mPa·s | viscosity (x1 = 0.8033): 0.7014 ± 0.0083 mPa·s | viscosity (x1 = 0.9014): 0.6101 ± 0.0078 mPa·s | viscosity (x1 = 1): 0.551 ± 0.0075 mPa·s | mass density (x1 = 0.102): 868.5 ± 0.6 kg/m3 | mass density (x1 = 0.2035): 932.3 ± 0.6 kg/m3 | mass density (x1 = 0.304): 996.3 ± 0.6 kg/m3 | mass density (x1 = 0.4049): 1061.2 ± 0.7 kg/m3 | mass density (x1 = 0.505): 1125.4 ± 0.8 kg/m3 | mass density (x1 = 0.6051): 1190.1 ± 0.9 kg/m3 | mass density (x1 = 0.7042): 1255.7 ± 1 kg/m3 | mass density (x1 = 0.8033): 1322 ± 1.1 kg/m3 | mass density (x1 = 0.9014): 1388.3 ± 1.2 kg/m3 | mass density (x1 = 1): 1455.7 ± 1.3 kg/m3

ClC(Cl)=C(Cl)Cl [tetrachloroethene] + CCC(C)=O
viscosity (x1 = 0.0888): 0.4563 ± 0.0071 mPa·s | viscosity (x1 = 0.1798): 0.5095 ± 0.0073 mPa·s | viscosity (x1 = 0.2732): 0.5626 ± 0.0076 mPa·s | viscosity (x1 = 0.3692): 0.6147 ± 0.0078 mPa·s | viscosity (x1 = 0.4672): 0.6642 ± 0.0081 mPa·s | viscosity (x1 = 0.5688): 0.7069 ± 0.0083 mPa·s | viscosity (x1 = 0.6719): 0.7447 ± 0.0085 mPa·s | viscosity (x1 = 0.7786): 0.7802 ± 0.0087 mPa·s | viscosity (x1 = 0.8873): 0.8161 ± 0.0089 mPa·s | viscosity (x1 = 1): 0.8474 ± 0.0091 mPa·s | mass density (x1 = 0.0888): 875.6 ± 0.6 kg/m3 | mass density (x1 = 0.1798): 955.1 ± 0.6 kg/m3 | mass density (x1 = 0.2732): 1034.4 ± 0.6 kg/m3 | mass density (x1 = 0.3692): 1114.1 ± 0.8 kg/m3 | mass density (x1 = 0.4672): 1193.9 ± 0.9 kg/m3 | mass density (x1 = 0.5688): 1275.5 ± 1 kg/m3 | mass density (x1 = 0.6719): 1356.5 ± 1.1 kg/m3 | mass density (x1 = 0.7786): 1441.7 ± 1.3 kg/m3 | mass density (x1 = 0.8873): 1524.2 ± 1.4 kg/m3 | mass density (x1 = 1): 1610.2 ± 1.6 kg/m3

CCC(C)O (configuration not stated) [butan-2-ol] + ClC=C(Cl)Cl
viscosity (x2 = 0): 3.103 ± 0.028 mPa·s | mass density (x2 = 0): 804.8 ± 0.7 kg/m3

ClC(Cl)=C(Cl)Cl [tetrachloroethene] + CC(C)O
viscosity (x1 = 0.0763): 1.855 ± 0.017 mPa·s | viscosity (x1 = 0.1567): 1.676 ± 0.015 mPa·s | viscosity (x1 = 0.2417): 1.51 ± 0.014 mPa·s | viscosity (x1 = 0.3313): 1.364 ± 0.013 mPa·s | viscosity (x1 = 0.4266): 1.236 ± 0.012 mPa·s | viscosity (x1 = 0.5276): 1.123 ± 0.011 mPa·s | viscosity (x1 = 0.6349): 1.025 ± 0.01 mPa·s | viscosity (x1 = 0.7486): 0.9401 ± 0.0097 mPa·s | viscosity (x1 = 0.8705): 0.8824 ± 0.0093 mPa·s | viscosity (x1 = 1): 0.8474 ± 0.0091 mPa·s | mass density (x1 = 0.0763): 864.9 ± 0.6 kg/m3 | mass density (x1 = 0.1567): 946.4 ± 0.6 kg/m3 | mass density (x1 = 0.2417): 1026.7 ± 0.6 kg/m3 | mass density (x1 = 0.3313): 1107.5 ± 0.7 kg/m3 | mass density (x1 = 0.4266): 1189.3 ± 0.9 kg/m3 | mass density (x1 = 0.5276): 1271.6 ± 1 kg/m3 | mass density (x1 = 0.6349): 1355.4 ± 1.2 kg/m3 | mass density (x1 = 0.7486): 1437.6 ± 1.3 kg/m3 | mass density (x1 = 0.8705): 1523.6 ± 1.4 kg/m3 | mass density (x1 = 1): 1610.2 ± 1.6 kg/m3

COC(C)=O [methyl ethanoate] + ClC(Cl)=C(Cl)Cl
viscosity (x2 = 0): 0.3711 ± 0.0068 mPa·s | mass density (x2 = 0): 923.9 ± 0.6 kg/m3

CCCO [propan-1-ol] + ClC=C(Cl)Cl
viscosity (x2 = 0): 1.954 ± 0.017 mPa·s | mass density (x2 = 0): 800 ± 0.7 kg/m3

CC(C)=O [acetone] + ClC=C(Cl)Cl
viscosity (x2 = 0): 0.3121 ± 0.0066 mPa·s | mass density (x2 = 0): 780.8 ± 0.7 kg/m3

CO [methanol] + ClC(Cl)=C(Cl)Cl
viscosity (x2 = 0): 0.5482 ± 0.0075 mPa·s | mass density (x2 = 0): 788.1 ± 0.7 kg/m3
